Laboratory results published in publication PMC7944240 (Anesthesiology, 2020).

Legend:
α1β3γ2L GABAA receptors [1] = target: T1, α1β3γ2L GABAA receptors (Homo sapiens, UniProt P14867+P18507+P28472); type: cell-based
zebrafish larvae = assay: Zebrafish larvae photomotor response; type: in vivo, Danio rerio; details: for EC50: Danio rerio, read-out: EC50 for abolishing zebrafish larvae motor responses to a light stimulus
GABAA receptor = details: cited from earlier work
α1β3γ2L GABAA receptors [2] = target: T1, α1β3γ2L GABAA receptors; type: cell-based; remark: listed apart in the source
α1β3γ2L GABAA receptors [3] = target: T1, α1β3γ2L GABAA receptors; type: cell-based; details: for IC50: IC50 for antagonizing direct activation by 20 μM etomidate in the presence of flumazenil, [Benzodiazepine]:[Flumazenil] = 1:2
[4] = target: purified α1β3γ2L GABAA receptors (Homo sapiens, UniProt P14867+P18507+P28472); assay: Inhibition of R-[3H]azietomidate photoaffinity labeling of purified receptors; details: at up to 300 μM
Chain of purified α1β3γ2L GABAA receptors (P14867 28-456): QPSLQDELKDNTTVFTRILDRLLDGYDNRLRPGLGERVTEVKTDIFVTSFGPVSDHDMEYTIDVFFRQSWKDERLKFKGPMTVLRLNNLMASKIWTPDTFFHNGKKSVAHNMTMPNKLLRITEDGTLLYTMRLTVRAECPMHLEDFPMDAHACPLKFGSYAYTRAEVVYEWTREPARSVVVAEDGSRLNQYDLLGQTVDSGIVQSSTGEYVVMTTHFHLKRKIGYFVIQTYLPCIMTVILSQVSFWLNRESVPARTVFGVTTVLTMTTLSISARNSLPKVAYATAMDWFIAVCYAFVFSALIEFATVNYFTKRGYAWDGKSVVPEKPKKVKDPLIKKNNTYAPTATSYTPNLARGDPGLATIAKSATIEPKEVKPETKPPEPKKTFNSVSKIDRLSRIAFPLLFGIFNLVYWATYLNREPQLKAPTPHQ
Chain of purified α1β3γ2L GABAA receptors (P28472 26-473): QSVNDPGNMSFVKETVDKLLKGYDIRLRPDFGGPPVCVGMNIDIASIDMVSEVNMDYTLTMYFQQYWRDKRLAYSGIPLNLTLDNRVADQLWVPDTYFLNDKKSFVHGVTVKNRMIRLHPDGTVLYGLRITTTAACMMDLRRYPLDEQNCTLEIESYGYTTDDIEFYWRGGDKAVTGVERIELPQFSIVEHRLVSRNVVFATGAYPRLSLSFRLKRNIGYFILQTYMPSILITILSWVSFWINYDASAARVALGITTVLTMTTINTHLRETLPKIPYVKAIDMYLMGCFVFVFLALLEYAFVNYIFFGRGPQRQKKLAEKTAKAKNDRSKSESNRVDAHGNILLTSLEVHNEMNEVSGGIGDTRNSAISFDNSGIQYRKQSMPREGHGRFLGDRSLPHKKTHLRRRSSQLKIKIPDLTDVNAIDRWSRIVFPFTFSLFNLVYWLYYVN
Chain of purified α1β3γ2L GABAA receptors (P18507 40-475): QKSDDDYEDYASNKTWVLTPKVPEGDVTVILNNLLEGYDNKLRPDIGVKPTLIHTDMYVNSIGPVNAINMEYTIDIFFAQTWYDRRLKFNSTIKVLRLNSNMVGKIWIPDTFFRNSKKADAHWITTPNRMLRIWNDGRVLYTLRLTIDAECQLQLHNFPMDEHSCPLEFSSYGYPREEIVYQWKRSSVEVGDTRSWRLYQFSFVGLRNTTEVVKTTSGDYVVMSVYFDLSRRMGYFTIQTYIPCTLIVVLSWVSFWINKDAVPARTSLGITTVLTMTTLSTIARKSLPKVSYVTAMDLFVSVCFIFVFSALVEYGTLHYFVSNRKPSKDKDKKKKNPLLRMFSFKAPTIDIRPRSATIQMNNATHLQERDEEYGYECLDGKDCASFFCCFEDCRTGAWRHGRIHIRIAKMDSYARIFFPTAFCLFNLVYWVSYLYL

purified GABAA receptors = details: cited from earlier work

T1 sequence (P14867 28-456): as the sequence (P14867 28-456) above
T1 sequence (P28472 26-473): as the sequence (P28472 26-473) above
T1 sequence (P18507 40-475): as the sequence (P18507 40-475) above

In the case of `CN1C(=O)CN=C(c2ccccc2)c2cc(Cl)ccc21` [Diazepam], the “reduction of GABA-activated peak current amplitudes at micromolar concentrations” value (α1β3γ2L GABAA receptors [1]; 6 μM GABA) is listed as “did not see a similar reduction”, the “effect on zebrafish larvae motor responses to light stimulus” value (zebrafish larvae; 50 μM, alone, no flumazenil) is listed as “essentially abolishes” and the “potentiation of currents activated by low concentrations of GABA via the etomidate binding site” value (GABAA receptor) is listed as “no more than two- to threefold”. For the same compound, the Schild slope (α1β3γ2L GABAA receptors [2]; against etomidate direct activation, flumazenil present (1:4)) was 1.1.
`Clc1ccc2c(c1)C(c1ccccc1)=NCc1nncn1-2` [Estazolam] showed an IC50 (α1β3γ2L GABAA receptors [3]) of 59 µM.
With `CN1C(=O)CN=C(c2ccccc2F)c2cc(Cl)ccc21` [Fludiazepam] the IC50 (α1β3γ2L GABAA receptors [3]) was 390 µM and the “etomidate inhibitory potency, fold lower than diazepam” value (α1β3γ2L GABAA receptors [3]; relative to diazepam) was 30 ×.
With `CCOC(=O)c1ncn2c1CN(C)C(=O)c1cc(F)ccc1-2` [Flumazenil] the “effect on R-[3H]azietomidate photo-incorporation” value [4] was “little inhibitory effect”, the “impact on GABA-activated currents in the absence of diazepam” value (α1β3γ2L GABAA receptors [1]; data not shown) was “no impact” and the “impact on etomidate-activated currents in the absence of diazepam” value (α1β3γ2L GABAA receptors [3]; data not shown) was “no impact”.
Compound `O=C1Nc2ccc(Cl)cc2C(c2ccccc2Cl)=NC1O` (stereo not drawn) [Lorazepam] has an IC50 (α1β3γ2L GABAA receptors [3]) of at least 1000 µM.
`CN1CCN=C(c2ccccc2)c2cc(Cl)ccc21` [Medazepam] showed an IC50 (α1β3γ2L GABAA receptors [3]) of at least 1000 µM.
`Cc1ncc2n1-c1ccc(Cl)cc1C(c1ccccc1F)=NC2` [Midazolam] gave an IC50 (α1β3γ2L GABAA receptors [3]) of 560 µM.
In the case of `O=C1CN=C(c2ccccc2)c2cc([N+](=O)[O-])ccc2N1` [Nitrazepam], the IC50 (α1β3γ2L GABAA receptors [3]) is reported as 130 µM.
With `O=C1CN=C(c2ccccc2)c2cc(Cl)ccc2N1` [Nordiazepam] the IC50 (α1β3γ2L GABAA receptors [3]) was 32 µM.
For `CCOC(=O)c1cncn1[C@H](C)c1ccccc1` [etomidate], the EC50 (zebrafish larvae) is listed as 0.66 µM, the “potentiation of currents activated by low concentrations of GABA” value (GABAA receptor; high concentrations) is listed as “more than an order of magnitude” and the “Hill slope of etomidate concentration-response curve” value (α1β3γ2L GABAA receptors [2]; Schild analysis) is listed as 2.1.
In the case of `CN1C(=O)CN=C(c2ccccc2F)c2cc([N+](=O)[O-])ccc21` [flunitrazepam], the “reduction in apparent affinity with purified GABAA receptors” value (purified GABAA receptors) is listed as “sevenfold”.
With `CNC1(c2ccccc2Cl)CCCCC1=O` (stereo not drawn) [ketamine] the EC50 (zebrafish larvae) was 170 µM and the “fold leftward shift of anesthetic concentration-response curve” value (zebrafish larvae; by 50 μM diazepam plus 200 μM flumazenil) was 19 fold.
